# Data reported in patent US20250082624A1, “METHODS OF TREATING COGNITIVE IMPAIRMENT” (NeuroTherapia, Inc., priority 2023, published 2025).
# “And” between values parts separate entries of the source, which are not always exact repeats. Equal entries are not always repeated. “Also recorded” adds a separate entry of the source.
# Columns and labels:
# [1] = test system: volunteers and AD patients; experiment: Phase 1b MAD safety and tolerability (adverse events, ECG, safety labs); assay type: in vivo, human
# From the text: (§1) Methods: All study procedures were approved by the IRB, and informed consent was obtained. Three cohorts of volunteers 45-80 years of age with well-controlled comorbidities (NOAD) and one cohort of AD patients diagnosed with cognitive impairment consistent with prodromal AD per International Working Group criteria or mild AD per National Institute on Aging—Alzheimer's Association criteria (n=6 active, 2 placebo per cohort) were enrolled. Participants were admitted to the study site for the duration of the dosing and returned 7-12 days after the last dose for a safety visit. Participants received NTRX-07 (10, 30, or 90 mg) or a placebo in a double-blinded randomization orally once daily for seven days. Subjects were assessed for changes in vital signs, including maneuvers to induce lightheadedness, electrocardiograms, 24-hour electroencephalograms (EEG), and safety laboratory studies. The second cohort returned and received a single repeat dose after a standard high-fat meal. The AD cohort also underwent cognitive testing and had blood samples for biomarkers drawn. Subjects had PK sampling done after the first and final dose of the study drug. An independent safety review committee conducted a blinded safety review of adverse events and plasma levels between each cohort.
# (§2) Assessments: Subjects were assessed for changes in vital signs, orthostatic blood pressure, Romberg test, nystagmus, timed get up and go, electrocardiograms, electroencephalograms (EEG), and laboratory studies. Subjective questionnaires of drug effects (ARCI-M) were administered. Cohort B returned and received a single repeat dose after a standard high-fat meal. The AD cohort also underwent cognitive testing (MMSE, ADAS-COG, MOCA) and had blood samples for biomarkers drawn.
# (§3) An informational letter was filed with the FDA to inform them of this study. The study was designed as follows: • 3 healthy cohorts (cohorts A-C) followed by AD cohort (cohort D) treated at MTD • 6 treated, 2 placebos in each cohort • Doses: 10, 30, 90 mg/treatment—latter doses can be adjusted based on PK assessment • In unit, 7 days of treatment • Monitor vertigo with various tests: (1) timed get-up and go, (2) Nystagmus test, (3) Romberg test, and (4) changes in orthostatic blood pressure (Day 1, 3 and 8) • Use 24 hr EEG monitoring for CNS safety assessment • Assess plasma biomarkers of inflammation and AD pre- and post-treatment in AD cohort • Assess changes on cognition post-treatment using MMSE and ADAS-cog • Fed/fasted study to determine food effects on PK as a subset of the Phase 1b
# [2] = test system: volunteers and AD patients; experiment: 24-hour EEG safety assessment and post-hoc qEEG analysis; assay type: in vivo, human; conditions: AD patients, 90 mg QD 7 days, post hoc exploratory
# Description: Protocol-specified EEG assessments were for safety assessment of any potential epileptogenic changes. A post-hoc analysis of quantitative EEG (qEEG) changes was also performed.
# as §3
# No subjects had clinically meaningful abnormal values or changes from baseline, nor differences between placebo and active drug, in EEG readings in any of the 4 cohorts.
# AD cohort = experiment: Cognitive testing ADAS-COG in AD cohort; assay type: in vivo, human; conditions: 90 mg QD 7 days
# From the text: as §1, §2
# (§4) Exploratory endpoints include cognitive testing and potential plasma biomarkers of inflammation. The small group size (6 on treatment, 2 placebo) precludes statistical analysis, but the goals were to gain insights for future study design. Exploratory endpoints include: • MMSE, MOCA & ADAS-COG • IL-12p70, IL-10, IL-4, IL-5, INFg, IL-6, IL-8, IL-22, TNFa, IL-10, hCRP, Chitinase-3, TREM-2, IL-2, Neurogranin, Total Tau, AB42, AB40, NF-LIGHT, pTau-181
# [3] = test system: plasma biomarkers of inflammation; experiment: Plasma biomarkers of inflammation and AD in AD cohort; assay type: in vivo, human; conditions: for AB40 Median / AB42 Median / Chitinase-3 Median / IL-1β Median / IL-2 Median / IL-4 Median / IL-5 Median / IL-6 Median / IL-8 Median / IL-10 Median / IL-12p70 Median / IL-22 Median / INFg Median / NF-LIGHT Median / Neurogranin Median / TNFa Median / TREM-2 Median / Total Tau Median / hCRP Median / pTau-181 Median: plasma
# From the text: as §1, §2, §3, §4
# healthy volunteers [4] = experiment: Phase 1a single ascending dose study; assay type: in vivo, human
# healthy volunteers [5] = conditions: cited from earlier work
# [6] = test system: APP/PS1 mouse model of AD; conditions: cited from earlier work
# [7] = Phase 1b, individual subjects on NTRX-07, Cohorts C and D (90 mg QD)
# [8] = after 7 days of 90 mg QD, Day 8
compound,measurement,setting,value
"CC1(Cc2ccccc2)COc2cc(C(=O)N3CCCCC3)ccc21 (stereo not drawn) [NTRX-07, 3-benzyl-3-methyl-2,3-dihydrobenzofuran-6-carboxylic acid-piperidine amide]",Changes in ECG or safety labs,[1]; Phase 1b,No clinically meaningful changes
same,Dose-limiting toxicities / serious adverse events,"[1]; Phase 1b, 10, 30, 90 mg oral QD for 7 days",no dose-limiting or serious adverse events; also recorded: safely administered; also recorded: No dose limiting toxicities at any of the tested doses
same,Adverse events observed during trial: Description of Event,[1]; [7],"Subfebrility; also recorded: Heartburn; also recorded: Dry mouth; also recorded: Xerostomia; also recorded: Hypertension; also recorded: Nausea; also recorded: Hypertension,; also recorded: tachycardia; also recorded: Dizziness; also recorded: Presyncope; also recorded: Weakness"
same,Adverse events observed during trial: Related to Study Drug?,[1]; [7],Possible (7×) and Probable and None (2×)
same,Adverse events observed during trial: Severity,[1]; [7],Mild (8×) and Moderate (2×)
same,qEEG mean frequency (AD effect),[2],treatment partially reversed this AD effect; also recorded: Trend towards improvement; also recorded: partial reversion of AD effect; also recorded: increasing mean frequency
same,ADAS-COG Mean (StdDev),AD cohort; Day 8,12.72 (1.56)
same,ADAS-COG,"AD cohort; Day 8, individual subjects",11.00 and 15.33 and 11.67 and 12.67 and 12.00 and 13.67
same,ADAS-COG Mean (StdDev),AD cohort; Day −2 (baseline),17.50 (2.83)
same,ADAS-COG,"AD cohort; Day −2 (baseline), individual subjects",17.00 and 18.33 and 13.33 and 22.00 and 18.00 and 16.33
same,ADAS-COG Mean (StdDev),AD cohort; EOS Day 14-19,13.17 (3.46)
same,ADAS-COG,"AD cohort; EOS Visit (Day 14-19), individual subjects",9.33 and 19.33 and 11.00 and 12.00 and 13.00 and 14.33
same,ADAS-COG trend,AD cohort; immediately post-treatment,Trend toward improvement
same,Changes in plasma biomarkers,[3]; 90 mg QD 7 days,No significant changes in biomarkers or plasma biomarkers; also recorded: no consistent changes
same,AB40 Median,"[3]; 90 mg QD, Day 1 (baseline)",232.84 pg/mL
same,AB42 Median,"[3]; 90 mg QD, Day 1 (baseline)",8.29 pg/mL
same,Chitinase-3 Median,"[3]; 90 mg QD, Day 1 (baseline)",43668.33 pg/mL
same,IL-1β Median,"[3]; 90 mg QD, Day 1 (baseline)",0.13 pg/mL
same,IL-2 Median,"[3]; 90 mg QD, Day 1 (baseline)",0.16 pg/mL
same,IL-4 Median,"[3]; 90 mg QD, Day 1 (baseline)",1.38 pg/mL
same,IL-5 Median,"[3]; 90 mg QD, Day 1 (baseline)",0.17 pg/mL
same,IL-6 Median,"[3]; 90 mg QD, Day 1 (baseline)",2.19 pg/mL
same,IL-8 Median,"[3]; 90 mg QD, Day 1 (baseline)",7.65 pg/mL
same,IL-10 Median,"[3]; 90 mg QD, Day 1 (baseline)",0.35 pg/mL
same,IL-12p70 Median,"[3]; 90 mg QD, Day 1 (baseline)",0.34 pg/mL
same,IL-22 Median,"[3]; 90 mg QD, Day 1 (baseline)",0.9 pg/mL
same,INFg Median,"[3]; 90 mg QD, Day 1 (baseline)",0.08 pg/mL
same,NF-LIGHT Median,"[3]; 90 mg QD, Day 1 (baseline)",18.24 pg/mL
same,Neurogranin Median,"[3]; 90 mg QD, Day 1 (baseline)",671.19 pg/mL
same,TNFa Median,"[3]; 90 mg QD, Day 1 (baseline)",0.69 pg/mL
same,TREM-2 Median,"[3]; 90 mg QD, Day 1 (baseline)",38468.67 pg/mL
same,Total Tau Median,"[3]; 90 mg QD, Day 1 (baseline)",2.07 pg/mL
same,hCRP Median,"[3]; 90 mg QD, Day 1 (baseline)",4135.17 ng/mL
same,pTau-181 Median,"[3]; 90 mg QD, Day 1 (baseline)",21.53 pg/ml
same,AB40 Median,[3]; [8],226.52 pg/mL
same,AB42 Median,[3]; [8],8.57 pg/mL
same,Chitinase-3 Median,[3]; [8],40345.17 pg/mL
same,IL-1β Median,[3]; [8],0.11 pg/mL
same,IL-2 Median,[3]; [8],0 pg/mL
same,IL-4 Median,[3]; [8],1.14 pg/mL
same,IL-5 Median,[3]; [8],0.19 pg/mL
same,IL-6 Median,[3]; [8],2.44 pg/mL
same,IL-8 Median,[3]; [8],10.41 pg/mL
same,IL-10 Median,[3]; [8],0.38 pg/mL
same,IL-12p70 Median,[3]; [8],0.33 pg/mL
same,IL-22 Median,[3]; [8],0.87 pg/mL
same,INFg Median,[3]; [8],0.08 pg/mL
same,NF-LIGHT Median,[3]; [8],18.49 pg/mL
same,Neurogranin Median,[3]; [8],881.02 pg/mL
same,TNFa Median,[3]; [8],0.83 pg/mL
same,TREM-2 Median,[3]; [8],39576.17 pg/mL
same,Total Tau Median,[3]; [8],2.03 pg/mL
same,hCRP Median,[3]; [8],4211.88 ng/mL
same,pTau-181 Median,[3]; [8],20.16 pg/ml
same,No adverse events level,healthy volunteers [4]; Phase 1a single ascending dose,2 mg/kg
same,Adverse events in Phase 1a,healthy volunteers [4]; single ascending dose,"Only minor, non-dose limiting adverse events"
same,Adverse effect at high doses,healthy volunteers [5]; single doses of 3.5 and 4 mg/kg,transient lightheadedness
same,Major adverse effects,"healthy volunteers [5]; single doses up to 2 mg/kg, healthy volunteers",no major adverse effects
same,Clearance of Aβ,"[6]; AD models, FIG. 4",improved clearance of A-beta proteins; also recorded: increases clearance of Aβ
same,Aβ plaque clearance,"[6]; APP/PS1 (Tg(APPswe,PSEN1dE9)85Dbo) mouse, FIG. 5",promotes Aβ plaque clearance
same,CB2 increase / Iba1 colocalization in microglia (microglial activation),"[6]; APP/PS1 mouse model of AD, FIG. 3",returned towards baseline
same,Inflammatory changes in the brain,[6]; preclinical AD models,decreased inflammatory changes in the brain
same,Long-term potentiation,[6]; preclinical AD models,improved long-term potentiation
